This experiment concerns the target T1, TβR (GST-ALK5) (Homo sapiens, UniProt P36897).
T1 sequence (P36897 34-503): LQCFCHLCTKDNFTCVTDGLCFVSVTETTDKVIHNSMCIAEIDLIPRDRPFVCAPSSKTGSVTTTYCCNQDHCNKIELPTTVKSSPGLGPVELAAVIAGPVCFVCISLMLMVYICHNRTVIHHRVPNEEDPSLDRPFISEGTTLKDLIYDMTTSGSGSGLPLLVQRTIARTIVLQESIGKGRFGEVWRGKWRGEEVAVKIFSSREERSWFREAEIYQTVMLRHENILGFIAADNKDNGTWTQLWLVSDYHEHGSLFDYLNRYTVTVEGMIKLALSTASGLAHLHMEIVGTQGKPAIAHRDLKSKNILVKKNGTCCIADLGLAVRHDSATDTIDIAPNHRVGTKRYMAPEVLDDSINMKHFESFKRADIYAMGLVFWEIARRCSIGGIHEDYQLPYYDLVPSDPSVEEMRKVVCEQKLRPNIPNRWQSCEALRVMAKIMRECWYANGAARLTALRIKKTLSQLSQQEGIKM
Nature of the experiment: In-vitro (enzyme) flashplate kinase assay, TβR activity. The format is biochemical. As to conditions: GST-ALK5, GST-SMAD2 substrate, 3 mM ATP. The method, then:
In-Vitro (Enzyme) Assay for Determination of the Efficacy of Inhibitors of the Inhibition of TGF-Beta-Mediated Effects
The kinase assay was carried out as 384-well flashplate assay. […] The reaction was stopped using 25 μl of 200 mM EDTA solution, filtered with suction at room temperature after 30 min, and the wells were washed with 3 times 100 μl of 0.9% NaCl solution. Radioactivity was measured in the TopCount. The IC50 values were calculated using RS1. Above and below, all temperatures were indicated in ° C.
For the compound `Fc1ccc(Cl)cc1-c1cc(Nc2ccnc3cccnc23)c2ccccc2n1` [compound 024], the half-maximal inhibitory concentration (IC50) is < 500 nM.
In turn, `CN1CCN(c2cc(Nc3cc(-c4cc(Cl)ccc4F)nc4ccccc34)ccn2)CC1` [compound 100] returned a half-maximal inhibitory concentration (IC50) of 1000 to 10000 nM.
Under `CN(C)C(=O)Nc1cnccc1Nc1cc(-c2cc(Cl)ccc2F)nc2ccccc12` [compound 031] stands < 500 nM.
Under `Fc1ccc(Cl)cc1-c1cc(Oc2ccncc2)c2ccccc2n1` [compound 006] stands > 10000 nM.
Under `COc1cccc(-c2cc(Nc3ccncc3)c3ccccc3n2)c1` [compound 049] stands 500 to 1000 nM; under `Nc1cnccc1Nc1cc(-c2cc(Cl)ccc2F)nc2ccccc12` [compound 019], < 500 nM.
`O=C(Nc1cnccc1Nc1cc(-c2cc(Cl)ccc2F)nc2ccccc12)C(F)(F)F` [compound 033] registered an IC50 of 1000 to 10000 nM.
Regarding `Fc1ccc(Cl)cc1-c1cc(NCc2cccnc2)c2ccccc2n1` [compound 065], the IC50 was > 10000 nM.
`CS(=O)(=O)Nc1cnccc1N(c1cc(-c2cc(Cl)ccc2F)nc2ccccc12)S(C)(=O)=O` [compound 040] returned an IC50 of 1000 to 10000 nM.
As for `Fc1ccc(F)c(-c2cc(Nc3ccncc3)c3ccccc3n2)c1` [compound 043], the figure is < 500 nM; as for `Fc1ccc(Cl)cc1-c1cc(Nc2cc(Nc3cc(-c4cc(Cl)ccc4F)nc4ccccc34)ncn2)c2ccccc2n1` [compound 036], > 10000 nM.
Turning to `Fc1ccc(Cl)cc1-c1cc(Oc2cccnc2)c2ccccc2n1` [compound 063], the IC50 was > 10000 nM.
For the compound `Fc1ccc(Cl)cc1-c1cc(-n2cnc3cnccc32)c2ccccc2n1` [compound 077], the half-maximal inhibitory concentration (IC50) is < 500 nM.
With `O=[N+]([O-])c1cnccc1Nc1cc(-c2cc(Cl)ccc2F)nc2ccccc12` [compound 018, [2-(5-Chloro-2-fluoro-phenyl)-quinolin-4-yl]-(3-nitro-pyridin-4-yl)-amine], the IC50 lay in the range of 1000 to 10000 nM.
With `CCN(CC)CCNS(=O)(=O)Nc1cnccc1Nc1cc(-c2cc(Cl)ccc2F)nc2ccccc12` [compound 076], the IC50 lay within 1000 to 10000 nM.
Consider `COc1ccc(-c2cc(Nc3ccncc3)c3ccccc3n2)cc1` [compound 042], for which the IC50 lay in the range of 500 to 1000 nM.
As for `O=c1[nH]c2cnccc2n1-c1cc(-c2ccccc2F)nc2ccccc12` [compound 034], the figure is 500 to 1000 nM.
Under `O=C(O)c1cc(Nc2cc(-c3cc(Cl)ccc3F)nc3ccccc23)ccn1` [compound 124] stands 1000 to 10000 nM.
The compound `O=C(Nc1cc(-c2cc(Cl)ccc2F)nc2ccccc12)c1cccnc1` [compound 010] displayed an IC50 of 1000 to 10000 nM.
In the case of `Nc1cnccc1N(CCC(=O)O)c1cc(-c2cc(Cl)ccc2F)nc2ccccc12` [compound 072], the IC50 was > 10000 nM.
For `FC(F)(F)c1ccc(Cl)cc1-c1cc(Nc2ccncc2)c2ccccc2n1` [compound 058], the IC50 was > 10000 nM.
As for `Fc1ccc(Cl)cc1-c1cc(Cc2ccncc2)c2ccccc2n1` [compound 004], the figure is > 10000 nM.
The compound `CN(C)CCCNc1cc(Nc2cc(-c3cc(Cl)ccc3F)nc3ccccc23)cc(Cl)n1` [compound 102] came in with a half-inhibitory concentration (IC50) of 1000 to 10000 nM.
As for `COC(=O)c1cnccc1Nc1cc(-c2cc(Cl)ccc2F)nc2ccccc12` [compound 116], the figure is < 500 nM.
Under `CN1CCN(C(=O)Nc2cnccc2Nc2cc(-c3cc(Cl)ccc3F)nc3ccccc23)CC1` [compound 062] stands 500 to 1000 nM; under `O=C(CO)Nc1cnccc1Nc1cc(-c2cc(Cl)ccc2F)nc2ccccc12` [compound 109], 500 to 1000 nM.
As for `Fc1ccc(Cl)cc1-c1cc(Nc2ncnc3ccccc23)c2ccccc2n1` [compound 068], the figure is < 500 nM; as for `CN(C)CCC(=O)Nc1cnccc1Nc1cc(-c2cc(Cl)ccc2F)nc2ccccc12` [compound 064], < 500 nM; as for `Nc1ncnc(Nc2cc(-c3cc(Cl)ccc3F)nc3ccccc23)n1` [compound 078], < 500 nM.
Take `Fc1ccc(Cl)cc1-c1cc(Nc2ccncn2)c2ccccc2n1` [compound 003]: the IC50 was < 500 nM.
On to `Fc1ccc(Cl)c(-c2cc(Nc3ccncc3)c3ccccc3n2)c1` [compound 070], for which the IC50 fell in the range of 1000 to 10000 nM.
Regarding `Fc1ccc(Cl)cc1-c1cc(Nc2ccnnc2)c2ccccc2n1` [compound 020], the IC50 was < 500 nM.
Turning to `FC(F)(F)c1ccccc1-c1cc(Nc2ccncc2)c2ccccc2n1` [compound 083], the IC50 is > 10000 nM.
Under `N#Cc1cncnc1Nc1cc(-c2cc(Cl)ccc2F)nc2ccccc12` [compound 122] stands < 500 nM.
Under `COCc1nc2cnccc2n1-c1cc(-c2cc(Cl)ccc2F)nc2ccccc12` [compound 089, 2-(5-Chloro-2-fluoro-phenyl)-4-(2-methoxymethyl-imidazo[4,5-c]pyridin-1-yl)-quinoline] stands < 500 nM; under `Fc1ccc(Cl)cc1-c1cc(NCc2ccncc2)c2ccccc2n1` [compound 060], > 10000 nM.
Turning to `Fc1ccc(Cl)cc1-c1cc(Nc2cn[nH]c2)c2ccccc2n1` [compound 016], the IC50 is < 500 nM.
As to `O=c1[nH]c2cnccc2n1-c1cc(-c2cc(Cl)ccc2F)nc2ccccc12` [compound 023, N*4*-[2-(5-Chloro-2-fluoro-phenyl)-quinolin-4-yl]-pyridine-3,4-diamine urea], the concentration for half-maximal inhibition (IC50) was < 500 nM.
As for `OCc1cnccc1Nc1cc(-c2ccccc2F)nc2ccccc12` [compound 127], the figure is < 500 nM; as for `CC(=O)OC(C)(C)C(=O)Nc1cnccc1Nc1cc(-c2cc(Cl)ccc2F)nc2ccccc12` [compound 088], 1000 to 10000 nM.
Under `CN1CCC(c2nc3cnccc3n2-c2cc(-c3cc(Cl)ccc3F)nc3ccccc23)CC1` [compound 028] stands > 10000 nM; under `CC(C)(C)S(=O)(=O)c1cnccc1Nc1cc(-c2cc(Cl)ccc2F)nc2ccccc12` [compound 096], > 10000 nM.
On to `CN1CCC(NC(=O)c2cnccc2Nc2cc(-c3cc(Cl)ccc3F)nc3ccccc23)CC1` [compound 125], for which the 50% inhibitory concentration (IC50) is < 500 nM.
Under `Clc1ccc(Cl)c(-c2cc(Nc3ccncc3)c3ccccc3n2)c1` [compound 048] stands < 500 nM.
With `Clc1cccc(-c2cc(Nc3ccncc3)c3ccccc3n2)c1` [compound 059], the 50% inhibitory concentration (IC50) was < 500 nM.
For `O=c1[nH]c2cnccc2n1-c1c(O)c(-c2cc(Cl)ccc2F)nc2ccccc12` [compound 053], the concentration for half-maximal inhibition (IC50) lay within 1000 to 10000 nM.
As for `CC(C)(C)OC(=O)NCC(=O)Nc1cc(Nc2cc(-c3cc(Cl)ccc3F)nc3ccccc23)ccn1` [compound 114], the figure is 1000 to 10000 nM; as for `Nc1cc(Nc2cc(-c3cc(Cl)ccc3F)nc3ccccc23)ncn1` [compound 038], < 500 nM; as for `CN(C)CCCC(=O)Nc1cnccc1Nc1cc(-c2cc(Cl)ccc2F)nc2ccccc12` [compound 067], 500 to 1000 nM.
Under `Fc1ccc(C(F)(F)F)cc1-c1cc(Nc2ccncc2)c2ccccc2n1` [compound 056] stands < 500 nM.
On to `O=S(=O)(CC(F)(F)F)Nc1cnccc1Nc1cc(-c2cc(Cl)ccc2F)nc2ccccc12` [compound 030], for which the IC50 lay within 1000 to 10000 nM.
Under `Fc1ccc(Cl)cc1-c1cc(Nc2ccncc2)c2cc3c(cc2n1)OCO3` [compound 095] stands > 10000 nM; under `Clc1cccc(-c2cc(Nc3ccncc3)c3ccccc3n2)c1Cl` [compound 112], > 10000 nM; under `CN(C)c1cccc(-c2cc(Nc3cc(N)ncn3)c3ccccc3n2)c1` [compound 080], > 10000 nM.
Regarding `COc1cc(Nc2cc(-c3cc(Cl)ccc3F)nc3ccccc23)ncn1` [compound 104], the half-maximal inhibitory concentration (IC50) is > 10000 nM.
As for `CCOC(=O)n1c(=O)n(-c2cc(-c3cc(Cl)ccc3F)nc3ccccc23)c2ccncc21` [compound 039], the figure is < 500 nM; as for `CN(c1ccncc1)c1cc(-c2cc(Cl)ccc2F)nc2ccccc12` [compound 007], 500 to 1000 nM; as for `CC(=O)N(c1cc(N)ncn1)c1cc(-c2cc(Cl)ccc2F)nc2ccccc12` [compound 110], 1000 to 10000 nM.
For `CN1CCC(C(=O)Nc2cnccc2Nc2cc(-c3cc(Cl)ccc3F)nc3ccccc23)CC1` [compound 027], the IC50 was < 500 nM.
As for `Fc1ccccc1-c1cc(Nc2ccncc2C(F)(F)F)c2ccccc2n1` [compound 046], the figure is < 500 nM.
Turning to `COc1cnccc1Nc1cc(-c2cc(Cl)ccc2F)nc2ccccc12` [compound 090, [2-(5-Chloro-2-fluoro-phenyl)-quinolin-4-yl]-(3-methoxy-pyridin-4-yl)-amine], the 50% inhibitory concentration (IC50) is < 500 nM.
`O=c1[nH]c2cnccc2n(-c2cc(-c3cc(Cl)ccc3F)nc3ccccc23)c1=O` [compound 082] yielded an IC50 of 1000 to 10000 nM.
As for `Fc1ccc(Cl)cc1-c1cc(Nc2ccnc(Cl)c2)c2ccccc2n1` [compound 021], the figure is 1000 to 10000 nM; as for `CN1CCN(c2cc(Nc3cc(-c4cc(Cl)ccc4F)nc4ccccc34)cc(Cl)n2)CC1` [compound 097], > 10000 nM.
Under `Fc1ccc(Cl)cc1-c1cc(Nc2cc(N3CCOCC3)ncn2)c2ccccc2n1` [compound 106] stands > 10000 nM; under `CN1CCN(c2nccc(Nc3cc(-c4cc(Cl)ccc4F)nc4ccccc34)n2)CC1` [compound 015], > 10000 nM.
